# Target: T1, hA3AR (Homo sapiens, UniProt P0DMS8)
# T1 construct: expressed in transfected cells; host or cells: CHO cells (CHOhA3AR), gift of Prof; K.N. Klotz, University of Würzburg; used as membrane fractions or live cells
# T1 sequence (P0DMS8 1-318): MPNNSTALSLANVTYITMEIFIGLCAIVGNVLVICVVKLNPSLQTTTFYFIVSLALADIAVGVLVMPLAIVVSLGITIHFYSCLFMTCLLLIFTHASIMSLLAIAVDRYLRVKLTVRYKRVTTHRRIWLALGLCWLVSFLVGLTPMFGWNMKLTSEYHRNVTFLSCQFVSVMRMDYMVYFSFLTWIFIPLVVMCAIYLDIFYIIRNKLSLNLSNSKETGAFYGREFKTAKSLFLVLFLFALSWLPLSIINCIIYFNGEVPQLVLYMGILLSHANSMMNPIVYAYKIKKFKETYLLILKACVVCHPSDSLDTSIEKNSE
# Assay: SDS-PAGE labeling in CHO membrane fractions, click to Cy5-N3
# Format: binding
# Settings: 50 nM probe, compared with 5 and 13
# Procedure: Membrane fractions were prepared as mentioned above and diluted to a concentration of 1 μg/μL. 18 μL of membrane fractions from either CHOhA3AR or CHO-K1 cells were taken. 1 μL of competing ligand (PSB-11, unless noted otherwise) was added (final concentration: 1 μM in 0.05% DMSO in assay buffer), and the samples were shaken for 30 min at rt. 1 μL of affinity-based probe was then added (final concentration: 50 nM in 0.05% DMSO in assay buffer, unless noted otherwise), and the samples were shaken for 1 h at rt. Deglycosylation was initiated by addition of 0.5 μL of PNGaseF (5 U), 0.5 μL of MilliQ water for the control samples, and the samples were shaken for 1 h at rt. The click mix was freshly prepared by adding together 5 parts 100 mM CuSO4 in MilliQ, 3 parts 1 M sodium ascorbate (NaAsc) in MilliQ, 1 part 100 mM Tris(3-hydroxypropyltriazolylmethyl)amine (THPTA) in MilliQ, and 1 part 100 μM Cy5-N3 in DMSO. […] In-gel fluorescence was measured on a Bio-Rad Universal Hood III using Cy3 (605/50 filter) or Cy5 (695/55 filter) settings. […]
# Gel images were analyzed using Image Lab software version 6.0.1 (Bio-Rad). Quantification was done in the following manner: the area under the curve (AUC) of the bands was selected using the ‘Lane Profile’ tab and the adjusted volumes were taken. […]
compound,measurement,value
"C#CCOc1ccn2c(c1)nc1c2c(=O)n(CCC)c(=O)n1CCCNC(=O)c1ccc(S(=O)(=O)F)cc1 [compound 9, 4-((3-(2,4-Dioxo-8-(prop-2-yn-1-yloxy)-3-propyl-3,4-dihydropyrido[2,1-f]purin-1(2H)-yl)propyl)carbamoyl)benzenesulfonyl fluoride]",off-target labeling on gel,fewer other proteins labeled
